Results published in patent US20200368205A1, “METHODS AND COMBINATION THERAPY TO TREAT CANCER” (ARRAY BIOPHARMA INC., priority 2018, published 2020).

Experiments:
RENCA tumors = assay: Growth of RENCA renal carcinoma tumors in retired mice; type: in vivo
Protocol: 1% CMC/0.5% Tween-80 (CMCT) was prepared by adding 960 mL of distilled water to a 1000 mL Pyrex® glass bottle with a stir bar in the bottom, and was used as the oral vehicle. […] Carboxymethylcellulose (5 g, CMC, low viscosity, Sigma C5678, Batch #033K0008) was added slowly, over one hour. The solution was stirred until the CMC dissolved and the solution was clear. 30 mg/kg MEK162 (Binimetinib, 100% active) was prepared as a white, homogeneous suspension in CMCT. MEK162 was administered in 10 mL/kg and dosed at 30 mg/kg (3.0 mg/mL) by oral gavage. To prepare, dry test compound (90 mg) was weighed and 30 mL CMCT added. Dose suspension was sonicated until a fine suspension was achieved (˜15 min). Final dose suspension was stored at 4° C. during live phase and sonicated to resuspend prior to dose administration. Dose suspension was prepared every 4-5 days or as needed. […] The antibody was administered at 100 μg/animal (100 μL of a 1 mg/mL dose solution) by intraperitoneal injection.
Male BALB/c mice from Charles River (Wilmington, Mass.) were obtained at 6-8 weeks of age and housed in groups of 5. Following a two week acclimation period, a suspension of 1×10^5 cells in a volume of 100 μL saline was implanted subcutaneously on the right flank of the animal near the axillary region. Animals were then randomly assigned to treatment groups. Treatment was initiated on day 4 after CT26 tumor cell inoculation to allow for a sufficient treatment window. MEK162 was administered once daily (QD) for 14 consecutive days by oral gavage (PO) at 30 mg/kg and anti-PD1 antibody was administered twice weekly by intraperitoneal injection (IP) (Table 4).
The combination was evaluated as concomitant administration or sequential where MEK162 treatment was initiated at the time that tumor resistance from anti-PD1 treatment emerged. For the sequential treatment group, animals were enrolled in MEK162 treatment when tumors reached 350-400 mm^3 after anti-PD1 antibody therapy was initiated.
Animals were monitored for tumor growth and body weight 2-3 times per week based on outgrowth kinetics. Tumor diameter was measured with digital calipers, and the tumor volume in mm^3 was calculated by the formula: Volume=((width)^2×length)/2. TGI was calculated on day 15. Animals were removed from study if found moribund or if tumor volume exceeded 1400 mm^3. At that time, tumor tissue was harvested and frozen for later analysis of T-cell clonality by immune sequencing (Adaptive Biotech, San Diego, Calif.).
Survival defined as morbidity, mortality or tumor size exceeding 1400 mm3. […] Cures: Animals with no palpable tumor at the end of the study were scored as cures. Maximum % Body Weight Loss (% BWL): % BWL=100(1−BWt/BW0); BW0 is group mean body weight at study start and BWt is group mean or median body weight on day where maximal body weight loss is observed. Tx-Related Deaths: Death occurring during live phase specifically due to drug administration and not attributable to other causes (e.g. gavage trauma, tumor-related morbidity, etc.)
For mice that were injected subcutaneously with RENCA cells, retired female breeders were used (23 weeks old). 200 μg of αPD-1 was administered on days 1, 4, 8 and 11.

MM485 (NRAS Q61R) cells = assay: MHC class I cell surface expression, flow cytometry; type: cell-based, human; details: 72 hours
Protocol: (§1) The goal of this study was to measure the effects of binimetinib on cell surface MHC class I expression in various melanoma cell lines. In this study, eight melanoma cell lines were evaluated: MEL-JUSO (NRAS Q61L mutation), IPC-298 (NRAS Q61L mutation), A375 (BRAF V600E, homozygous mutation), HS936.T (NRAS Q61K mutation and BRAF N581K mutation), MM485 (NRAS Q61R mutation), SK-MEL-2 (NRAS Q61R mutation), MM415 (NRAS Q61L mutation), Malme-3M (BRAF V600E, heterozygous mutation). The cells lines were seeded into flat bottom 96-well tissue culture plates at a density of 5000 cells per well and allowed to adhere overnight. The following day cells were treated with vehicle control (0.25% DMSO) or varying dilutions of Binimetinib (0.7 nM-25000 nM) for 1 hour. Cells were then treated with vehicle control or 100 ng/ml IFNgamma (R&D systems) for 72 hours. Cells were washed, trypsinized, and stained with Alexa Fluor® 647 anti-human HLA-A,B,C antibody (W6/32, eBioscience) and analyzed on a BD FACSCanto II flow cytometer. An IFNg titration and time course were performed for assay optimization. Maximal induction of MHC class I expression was seen ˜100 ng/mL of IFNγ (see, e.g., FIGS. 1 and 2).

MM415 (NRAS Q61L) cells = assay: as above; type: cell-based, human; details: 72 hours
Protocol: as §1

[1] = Binimetinib steady state exposure quoted in figure legends; details: total

In the case of Cn1cnc2c(F)c(Nc3ccc(Br)cc3F)c(C(=O)NOCCO)cc21 [Binimetinib, 6-(4-bromo-2-fluorophenylamino)-7-fluoro-3-methyl-3H-benzoimidazole-5-carboxylic acid (2-hydroxyethoxy)-amide], the “Cures (day 43)” value (RENCA tumors; retired mice) is reported as 0/12, the “% TGI (day 18)” value (RENCA tumors; retired mice (23 weeks of age), binimetinib 30 mg/kg, αPD-1 200 μg days 1, 4, 8 and 11) is reported as 25% and the Deaths (RENCA tumors; retired mice, vehicle 9/12) is reported as 10/12. For the same molecule, the “Maximum % BWL” value (RENCA tumors; retired mice, vehicle 15.1) was 23.3%, the “Median Survival” value (RENCA tumors; retired mice, vehicle 21) was 24 and the “Maximal Fold Increase in MHC Class I Expression” value (“Maximal Fold Increase” for short) (MM485 (NRAS Q61R) cells; +IFNg 100 ng/ml) was 2 fold. The “Maximal Fold Increase” value (MM485 (NRAS Q61R) cells; −IFNg) was 2 fold, the “Maximal Fold Increase” value (MM415 (NRAS Q61L) cells; +IFNg 100 ng/ml) was 2 fold and the “Maximal Fold Increase” value (MM415 (NRAS Q61L) cells; −IFNg) was 0 fold. For the same molecule, the “Trough (day 15)” value [1] was 310 nM.
